Experimental data: US11167015B2, “Arginine and its use as a T cell modulator” (INSTITUTE FOR RESEARCH IN BIOMEDICINE, priority 2016, dated 2021)

Columns and labels:
B16.OVA melanoma [1] = experiment: Tumor experiment: in vitro activation of T cells; format: in vivo, C57BL/6 mice; settings: L-arginine-treated OT-I T cells transferred into B16 OVA tumor bearing mice
Procedure: B16-OVA melanoma cells were cultured in RPMI 1640 plus 10% FCS, 1% penicillin/streptomycin and 2 mM glutamine. Before injection into mice, cells were trypsinized and washed twice in PBS. Then, 5×10^5 cells were subcutaneously injected in the dorsal region of Wt C57BL/6 mice. Ten days post injection, 5×10^6 OT-I cells, that have been activated in vitro as described above, were injected into the tail vein of tumor-bearing mice. The size of tumors was measured in a blinded fashion using calipers.

mouse CD8+ OT-I T cells = experiment: Survival of activated OT-I T cells in vitro after IL-2 withdrawal; format: cell-based; settings: L-arginine-supplemented medium 4 days
From the text: FIG. 7. CD8+ T cells with increased L-arginine levels display improved anti-tumor activity in vivo. (A) Survival of activated mouse CD8+OT-I T cells (4 d) after IL-2 withdrawal. Data points represent the difference between the percentage of living T cells from cultures performed in L-Arg medium or Ctrl medium; n=11. (B) CD90.1+CD45.1/2+ and CD90.1+CD45.1+ naïve CD8+ OT-I T cells were activated for 4 days in Ctrl medium or L-Arg medium, respectively. Equal numbers of the congenically marked activated OT-I cells were co-transferred into Cd3e−/− mouse and the number of living T cells was measured in pooled spleen and lymph nodes at the indicated time points; n=3 at each time point. (C) Naïve CD8+ OT-I T cells were activated with CD3+CD28 antibodies in L-Arg medium or control (Ctrl) medium. Five days after activation, the percentage of Tcm-like cells (CD44hi, CD62L+) was measured by flow cytometry; n=15. (D) Naïve OT-I CD8+ T cells were activated in L-Arg medium or Ctrl medium and IFN-γ was quantified in culture supernatants after 5 days; n=15. (E) Same as in (D) but T cells were re-activated on day 5 day with PMA/Ionomycin; n=15. (F, G) B16.OVA melanoma cells were injected into C57BL/6 mice and tumors were allowed to grow for 10 days. […] Tumor burden (F) and survival (G) were assessed over time. […] In (G) *p<0.05 as determined by log-rank test comparison between curves. […]

B16.OVA melanoma [2] = experiment: Tumor experiment: in vivo priming of T cells, oral L-arginine; parameters: species or system C57BL/6 mice; settings: mice fed with L-arginine 1.5 mg/g body weight daily vs PBS
Procedure: B16-OVA melanoma cells were cultured and injected into Wt C57BL/6 mice as described above. Five clays post injection, when tumors were very small, mice were γ-irradiated (5 Gy) and 24 hours later they received 4×10^5 OT-I cells intravenously (i.v.). The clay after mice were immunized intraperitoneally (i.p.) with […] peptide (OVA257-264) in Inject Alum Adjuvant (Thermo Fisher Scientific). L-Arg (1.5 g/Kg body weight) or PBS, as control, was daily orally administrated, starting one clay before T cell transfer and until the end of the experiment. The size of tumors was measured in a blinded fashion using calipers.

OT-I T cells = experiment: Adoptive T cell transfer and survival experiment; format: in vivo; settings: activated 4 days in L-Arg medium, transfer into Cd3e−/− mice
Procedure: CD90.1^+ CD45.1/2^+ OT-I cells were activated with plate-bound antibodies to CD3 and CD28 in control medium. OT-I cells with a different congenic marker (CD90.1^+ CD45.1^+) were activated in L-arginine-supplemented medium. At day 4, equal cell numbers were injected into the tail vein of Cd3e^−/− host mice. To study the expansion of OT-I effector cells, host mice were sacrificed after 1, 3, 6, and 10 days post transfer and CD90.1^+ OT-I T cells from lymphoid organs (spleen and lymph nodes) were enriched with anti-CD90.1 micro beads (Miltenyi Biotec), stained and analysed by FACS. The following monoclonal antibodies were used α-CD8α (53-6.7), α-CD44 (1M7), α-CD62L (MEL-14), α-CD90.1 (OX-7), α-CD90.2 (30-H12), α-CD45.1 (A20), α-CD45.2 (104).

N=C(N)NCCC[C@H](N)C(=O)O [L-arginine]
anti-tumor response: survival of mice (B16.OVA melanoma [1]): increased survival of mice
anti-tumor response: tumor size (B16.OVA melanoma [1]): reduction of tumor size
survival capacity of OT-I T cells in vitro (mouse CD8+ OT-I T cells): higher survival capacity
anti-tumor response of OT-I T cells primed in vivo (B16.OVA melanoma [2]): superior in mediating an anti-tumor response
survival capacity of OT-I T cells in vivo (OT-I T cells): higher survival capacity
